Organism: Rattus norvegicus
Test: Open TG-GATES - Regimen: Single
Type: toxicity, organism-based, Sprague-Dawley
Design: regimen Single, gender Male, age 6 weeks
Details: in vivo, po, 25 mg/kg, route gavage, dose level Low; for APTT / Bas / Eos / Fbg / Hb / Ht / Lym / MCH / MCHC / MCV / Mono / Neu / PT / Plat / RBC / Ret / WBC: tissue Blood; for KIDNEY_L / KIDNEY_R / KIDNEY_TOTAL: tissue Kidney; for LIVER: tissue Liver; for A/G / ALP / ALT / AST / BUN / CRE / Ca / Cl / DBIL / GLC / IP / K / LDH / Na / PL / RALB / TBIL / TC / TG / TP / gamma-GTP: tissue Plasma

CCSCC[C@H](N)C(=O)O [ETHIONINE]
TERMINAL_BW (3 h): 217.8 g | APTT (3 h): 19.1 s | Bas (3 h): 0% | Eos (3 h): 1.2% | Fbg (3 h): 211.4 mg/dL | Hb (3 h): 13.1 g/dL | Ht (3 h): 38.9% | Lym (3 h): 83.4% | MCH (3 h): 21.1 pg | MCHC (3 h): 33.5% | MCV (3 h): 62.9 fL | Mono (3 h): 2.4% | Neu (3 h): 12.2% | PT (3 h): 12.4 s | Plat (3 h): 120.2 x10_4/uL | RBC (3 h): 619.2 x10_4/ul | Ret (3 h): 6.9% | WBC (3 h): 89.8 x10_2/uL | KIDNEY_L (3 h): 0.9 g | KIDNEY_R (3 h): 0.9 g | KIDNEY_TOTAL (3 h): 1.9 g | LIVER (3 h): 10.1 g | A/G (3 h): 1.6 | ALP (3 h): 855.8 IU/L | ALT (3 h): 33 IU/L | AST (3 h): 66 IU/L | BUN (3 h): 11.2 mg/dL | CRE (3 h): 0.4 mg/dL | Ca (3 h): 10.5 mg/dL | Cl (3 h): 101.8 meq/L | DBIL (3 h): 0.056 mg/dL | GLC (3 h): 202.4 mg/dL | IP (3 h): 9.7 mg/dL | K (3 h): 4 meq/L | LDH (3 h): 212.6 IU/L | Na (3 h): 140.4 meq/L | PL (3 h): 138.4 mg/dL | RALB (3 h): 3.2 g/dL | TBIL (3 h): 0.1 mg/dL | TC (3 h): 77.8 mg/dL | TG (3 h): 61.2 mg/dL | TP (3 h): 5.2 g/dL | gamma-GTP (3 h): 1 IU/L | TERMINAL_BW (6 h): 214.9 g | APTT (6 h): 19.4 s | Bas (6 h): 0% | Eos (6 h): 1% | Fbg (6 h): 210.6 mg/dL | Hb (6 h): 13.3 g/dL | Ht (6 h): 39.1% | Lym (6 h): 82% | MCH (6 h): 21.4 pg | MCHC (6 h): 33.9% | MCV (6 h): 62.9 fL | Mono (6 h): 2.4% | Neu (6 h): 14% | PT (6 h): 12.7 s | Plat (6 h): 118.7 x10_4/uL | RBC (6 h): 620.4 x10_4/ul | Ret (6 h): 6.7% | WBC (6 h): 82.3 x10_2/uL | KIDNEY_L (6 h): 1 g | KIDNEY_R (6 h): 1 g | KIDNEY_TOTAL (6 h): 2 g | LIVER (6 h): 9.3 g | A/G (6 h): 1.6 | ALP (6 h): 885.2 IU/L | ALT (6 h): 31.4 IU/L | AST (6 h): 63.8 IU/L | BUN (6 h): 9.4 mg/dL | CRE (6 h): 0.4 mg/dL | Ca (6 h): 10.2 mg/dL | Cl (6 h): 102.8 meq/L | DBIL (6 h): 0.058 mg/dL | GLC (6 h): 191.2 mg/dL | IP (6 h): 9.5 mg/dL | K (6 h): 3.8 meq/L | LDH (6 h): 224.2 IU/L | Na (6 h): 139.6 meq/L | PL (6 h): 126.8 mg/dL | RALB (6 h): 3.2 g/dL | TBIL (6 h): 0.1 mg/dL | TC (6 h): 66.4 mg/dL | TG (6 h): 52.6 mg/dL | TP (6 h): 5.2 g/dL | gamma-GTP (6 h): 1.6 IU/L | TERMINAL_BW (9 h): 212.9 g | APTT (9 h): 18.9 s | Bas (9 h): 0% | Eos (9 h): 1% | Fbg (9 h): 228.2 mg/dL | Hb (9 h): 13.4 g/dL | Ht (9 h): 39.3% | Lym (9 h): 71% | MCH (9 h): 21.3 pg | MCHC (9 h): 34% | MCV (9 h): 62.6 fL | Mono (9 h): 2.2% | Neu (9 h): 25.4% | PT (9 h): 12.6 s | Plat (9 h): 125.9 x10_4/uL | RBC (9 h): 629.2 x10_4/ul | Ret (9 h): 6.8% | WBC (9 h): 95.5 x10_2/uL | KIDNEY_L (9 h): 0.9 g | KIDNEY_R (9 h): 0.9 g | KIDNEY_TOTAL (9 h): 1.8 g | LIVER (9 h): 9 g | A/G (9 h): 1.6 | ALP (9 h): 842.8 IU/L | ALT (9 h): 33.2 IU/L | AST (9 h): 69.6 IU/L | BUN (9 h): 11.2 mg/dL | CRE (9 h): 0.3 mg/dL | Ca (9 h): 10.5 mg/dL | Cl (9 h): 101.8 meq/L | DBIL (9 h): 0.074 mg/dL | GLC (9 h): 197 mg/dL | IP (9 h): 9.6 mg/dL | K (9 h): 3.7 meq/L | LDH (9 h): 200.6 IU/L | Na (9 h): 141 meq/L | PL (9 h): 123.4 mg/dL | RALB (9 h): 3.4 g/dL | TBIL (9 h): 0.1 mg/dL | TC (9 h): 63.6 mg/dL | TG (9 h): 75.8 mg/dL | TP (9 h): 5.6 g/dL | gamma-GTP (9 h): 0.8 IU/L | TERMINAL_BW (24 h): 231.8 g | APTT (24 h): 20 s | Bas (24 h): 0% | Eos (24 h): 1% | Fbg (24 h): 234 mg/dL | Hb (24 h): 13.3 g/dL | Ht (24 h): 38.9% | Lym (24 h): 80% | MCH (24 h): 21.7 pg | MCHC (24 h): 34.2% | MCV (24 h): 63.6 fL | Mono (24 h): 3% | Neu (24 h): 15.4% | PT (24 h): 12.7 s | Plat (24 h): 126.9 x10_4/uL | RBC (24 h): 612 x10_4/ul | Ret (24 h): 6.8% | WBC (24 h): 103.2 x10_2/uL | KIDNEY_L (24 h): 1 g | KIDNEY_R (24 h): 1 g | KIDNEY_TOTAL (24 h): 2 g | LIVER (24 h): 11.1 g | A/G (24 h): 1.6 | ALP (24 h): 978 IU/L | ALT (24 h): 34.2 IU/L | AST (24 h): 68 IU/L | BUN (24 h): 14.6 mg/dL | CRE (24 h): 0.4 mg/dL | Ca (24 h): 10.6 mg/dL | Cl (24 h): 102.4 meq/L | DBIL (24 h): 0.098 mg/dL | GLC (24 h): 209 mg/dL | IP (24 h): 8.3 mg/dL | K (24 h): 4 meq/L | LDH (24 h): 230.4 IU/L | Na (24 h): 140 meq/L | PL (24 h): 142.8 mg/dL | RALB (24 h): 3.5 g/dL | TBIL (24 h): 0.1 mg/dL | TC (24 h): 67.8 mg/dL | TG (24 h): 122.6 mg/dL | TP (24 h): 5.6 g/dL | gamma-GTP (24 h): 1.4 IU/L

From ChEMBL document CHEMBL3885861, “Open TG-GATES”
